Target: T1, K103NNY181C mutant reverse transcriptase (Human immunodeficiency virus type 1 group M subtype B, UniProt P04585, K690N/Y768C)
T1 construct: mutations that occur in the reverse transcriptase segment of the pol gene
Experiment: Reverse transcriptase enzymatic assay (PicoGreen), K103N/Y181C mutant RT
Type: biochemical, HIV-1
Settings: enzymatic assay of Example 24
Method: The enzymatic assay employed is described as follows: The reverse transcriptase (RT) enzyme assay has been adapted to a 96-well microtiter plate format and uses PicoGreen™ as a fluorescent intercalator. More explicitly, the HIV-1 RT enzyme was thawed and appropriately diluted into Tris/HCl 50 mM pH 7.8 containing NaCl 60 mM, MgCl2.6H2O 2 mM, DTT 6 mM, GSH 2 mM and 0.02% w/v Chaps to give ≈10 nM enzyme. To 10 μL of this enzyme solution was added 10 μL of inhibitor solution (40 μM to 2.032 nM inhibitor in the same assay buffer as above containing 4% v/v DMSO). The plate was pre-incubated for 15 minutes at room temperature before proceeding to the next step. In this pre-incubation step, the highest and lowest inhibitor concentrations were 20 μM and 1.016 nM respectively and the concentration of DMSO was 2% v/v. Then the enzymatic reaction was initiated by addition of 20 μL of substrate solution. The final reaction mixture contained Tris/HCl 50 mM pH 7.8, NaCl 60 mM, MgCl2.6H2O 2 mM, DTT 6 mM, GSH 2 mM, CHAPS 0.02% w/v, DMSO 1% v/v, poly rC 45 nM, dG15 4.5 nM, dGTP 3.6 μM, and 2.5 nM enzyme. In this incubation step, the highest and lowest inhibitor concentrations were 10 μM and 0.508 nM respectively. After addition of the substrate cocktail, the plate was covered with a plastic seal and incubated for 50 minutes at 37° C. in a dry incubator. The reaction was then quenched by addition of 5 μL of EDTA 0.5 M. The plate was shaken for 30 seconds at medium speed and incubated for 5 minutes at room temperature. Then 160 μL of PicoGreen™ 1:400 dilution from commercial stock (diluted in Tris 20 mM pH 7.5 with EDTA 1 mM) was added and the plate was shaken for 30 seconds and incubated for 10 minutes at room temperature. The plate was then analyzed using a POLARstar Galaxy fluorometer (BMG Labtechnologies) with λex and λem of 485 nm and 520 nm respectively. Each well was read for 1.25 second. Each row contained at its extremities a blank and a control well.

[1] = IC50 mut, mutant reverse transcriptase
[2] = IC50 mut, K103N/Y181C mutant reverse transcriptase
[3] = IC50 mut (nM), mutant (K103N/Y181C) reverse transcriptase

In the case of `CC(C)(C)c1ccc(-n2nnnc2SCC(=O)Nc2ccc(-c3ccc(OCCN4CCOCC4)cc3)cc2Cl)c(Cl)c1` [Compound 2022], the IC50 [1] is reported as 42 nM.
For `CC(C)(C)c1ccc(-n2nnnc2SCC(=O)Nc2ccc(-c3ccc(OCCN4CC[C@@H](O)C4)cc3)cc2Cl)c(Cl)c1` [Compound 2041], the IC50 [1] was 28 nM.
Compound `CC(C)(C#Cc1ccc(NC(=O)CSc2nnnn2-c2ccc(C(C)(C)C)cc2Cl)c(Cl)c1F)C(=O)O` [Compound 4122] has an IC50 [2] of 15.5 nM.
`CN(C)c1ccc(NC(=O)COc2ccc(NC(=O)CSc3nnnn3-c3ccc(C(C)(C)C)cc3Cl)c(Cl)c2)cc1` [Compound 5012] was tested, and the IC50 [1] was 466 nM.
For `CC(C)(O)C#Cc1ccc(NC(=O)CSc2nnnn2-c2cc(C(C)(C)C)ccc2Cl)c(Cl)c1` [Compound 4199], the IC50 [2] was 32 nM.
`CC(C)(C#Cc1ccc(NC(=O)CSc2nnnn2-c2cc(F)ccc2Cl)c(Cl)c1)C(=O)O` [Compound 4212] gave an IC50 [2] of 362 nM.
`CC(C)(C#Cc1ccc(NC(=O)CSc2nnnn2-c2ccc(C3CC3)cc2Cl)c(Cl)c1)NC(=O)CN1CCC(O)CC1` [Compound 4125] was tested, and the IC50 [2] was 26 nM.
For `CC(C)(C)c1ccc(-n2nnnc2SCC(=O)Nc2ccc(C(=O)NCCC(=O)O)cc2Cl)c(Cl)c1` [Compound 6024], the IC50 [1] was 41 nM.
`Cc1cc(C#CC(C)(C)C(=O)O)ccc1NC(=O)CSc1nnnn1-c1ccc(C(C)(C)C)cc1Cl` [Compound 4057] gave an IC50 [2] of 96 nM.
With `CC(C)(C#Cc1ccc(NC(=O)CSc2nnnn2-c2cc(CC3CC3)ccc2Cl)c(Cl)c1)C(=O)O` [Compound 4213] the IC50 [2] was 32.5 nM.
With `CC(C)(C)c1ccc(-n2nnnc2SCC(=O)Nc2ccc(NC(=O)CCC(=O)O)cc2Cl)c(Cl)c1` [Compound 7028] the IC50 [3] was 123 nM.
`CC(C)(C)c1ccc(-n2nnnc2SCC(=O)Nc2ccc(C(=O)Nc3cccc(C(=O)O)c3)cc2Cl)c(Cl)c1` [Compound 6021] was tested, and the IC50 [1] was 58 nM.
Compound `CC(C)(C#Cc1ccc(NC(=O)CSc2nnnn2-c2cc(C(C)(C)C)cc(Br)c2Cl)c(Cl)c1)NC(=O)CN1CCNCC1` [Compound 4224] has an IC50 [2] of 101 nM.
For `CC(C)c1ccc(-n2nnnc2SCC(=O)Nc2ccc(C#CC(C)(C)C(=O)O)cc2Cl)c(Cl)c1` [Compound 4121], the IC50 [2] was 33.5 nM.
Work on `Cc1ccc(-n2nnnc2SCC(=O)Nc2ccc(-c3ccc(CC(=O)O)cc3)cc2[N+](=O)[O-])c(Cl)c1` [Compound 2011] yielded an IC50 [1] of 49 nM.
Work on `CC(CC(=O)O)NC(=O)c1ccc(NC(=O)CSc2nnnn2-c2ccc(C(C)(C)C)cc2Cl)c(Cl)c1` (centres unmarked) [Compound 6015] yielded an IC50 [1] of 39 nM.
For `CC(C)(C)c1ccc(-n2nnnc2SCC(=O)Nc2ccc(C(=O)N3CCOCC3)cc2Cl)c(Cl)c1` [Compound 6005], the IC50 [1] was 564 nM.
`Cc1ccc(-n2nnnc2SCC(=O)Nc2ccc(-c3cocn3)cc2Cl)c(Cl)c1` [Compound 3016] gave an IC50 [1] of 359 nM.
`Cc1ccc(-n2nccc2OCC(=O)Nc2ccc(-c3ccc(CC(=O)O)cc3)cc2Cl)c(Cl)c1` [Compound 1003] was tested, and the IC50 [1] was 770 nM.
With `CC(C)(C)c1ccc(-n2nccc2SCC(=O)Nc2ccc(-c3ccc(CC(=O)O)cc3)cc2Cl)c(Cl)c1` [Compound 1006] the IC50 [1] was 216 nM.
In the case of `CC(C)(C#Cc1ccc(NC(=O)CSc2nnnn2-c2cccc(C3CC3)c2Cl)c(Cl)c1)C(=O)O` [Compound 4179], the IC50 [2] is reported as 467 nM.
`O=C(COc1ccc(NC(=O)CSc2nnnn2-c2ccc(C3CC3)cc2Cl)c(Cl)c1)NCCc1cc[n+]([O-])cc1` [Compound 5040] gave an IC50 [1] of 563 nM.
Work on `CC(C)(C)c1ccc(-n2nnnc2SCC(=O)Nc2ccc(NC(=O)c3ccccc3O)cc2Cl)c(Cl)c1` [Compound 7014] yielded an IC50 [3] of 415 nM.
With `CC(C)(C)c1ccc(-n2nnnc2SCC(=O)Nc2ccc(NC(=O)Cc3ccccc3C(F)(F)F)cc2Cl)c(Cl)c1` [Compound 7045] the IC50 [3] was 432 nM.
For `CC(C)(C)c1ccc(-n2nnnc2SCC(=O)Nc2ccc(-c3ccc(/C=C/C(=O)O)s3)cc2Cl)c(Cl)c1` [Compound 3031], the IC50 [1] was 15.5 nM.
For `CC(C)(C#Cc1ccc(NC(=O)CSc2nnnn2-c2cc(C(F)(F)F)ccc2Cl)c(Cl)c1)NC(=O)C1CC1` [Compound 4140], the IC50 [2] was 51 nM.
For `CC(C)(C#Cc1ccc(NC(=O)CSc2nnnn2-c2ccc(C3CC3)cc2Cl)c(Cl)c1F)OCCN1CCCC1` [Compound 4175], the IC50 [2] was 67 nM.
Work on `CSCCC(NC(=O)c1ccc(NC(=O)CSc2nnnn2-c2ccc(C(C)(C)C)cc2Cl)c(Cl)c1)C(=O)O` (centres unmarked) [Compound 6025] yielded an IC50 [1] of 41 nM.
`Cc1ccc(-n2nnnc2SCC(=O)Nc2ccc(-c3ccc(CC(N)=O)cc3)cc2[N+](=O)[O-])c(Cl)c1` [Compound 2013] showed an IC50 [1] of 20 nM.
Work on `CC(C)(C#Cc1ccc(NC(=O)CSc2nnnn2-c2cc(C3CC3)ccc2Cl)c(Cl)c1)NC(=O)CN1CCNCC1` [Compound 4195] yielded an IC50 [2] of 22.5 nM.
In the case of `CC(C)(C#Cc1ccc(NC(=O)CSc2nnnn2-c2ccc(C3CC3)cc2Cl)c(Cl)c1)OCC(N)=O` [Compound 4064], the IC50 [2] is reported as 11.5 nM.
With `CC(C)(C#Cc1ccc(NC(=O)CSc2nnnn2-c2ccc(C(C)(C)C)cc2Cl)c(Cl)c1)COC(N)=O` [Compound 4042] the IC50 [2] was 37 nM.
With `CC(C)(C)c1ccc(-n2nnnc2SCC(=O)Nc2ccc(OCC(=O)Nc3ccc(CC(=O)O)cc3)cc2Cl)c(Cl)c1` [Compound 5023] the IC50 [1] was 38 nM.
Work on `Cc1cc(Cl)c(-n2nnnc2SCC(=O)Nc2ccc(C#CC(C)(C)C(=O)O)cc2Cl)cc1C(F)(F)F` [Compound 4063] yielded an IC50 [2] of 51.5 nM.
In the case of `CC(C)(C#Cc1ccc(NC(=O)CSc2nnnn2-c2ccc(C(C)(C)C)cc2Cl)c(Cl)c1)OCC(=O)NNC(N)=O` [Compound 4056], the IC50 [2] is reported as 26 nM.
Work on `CC(C)(C)c1ccc(-n2nnnc2SCC(=O)Nc2ccc(NC(=O)Cc3ccc([N+](=O)[O-])cc3)cc2Cl)c(Cl)c1` [Compound 7025] yielded an IC50 [3] of 154 nM.
For `COC(C(=O)Nc1ccc(NC(=O)CSc2nnnn2-c2ccc(C(C)(C)C)cc2Cl)c(Cl)c1)c1ccccc1` (centres unmarked) [Compound 7039], the IC50 [3] was 89.5 nM.
Work on `CNC(=O)NS(=O)(=O)c1ccc(NC(=O)CSc2nnnn2-c2ccc(C3CC3)cc2Cl)c(Cl)c1` [Compound 3039] yielded an IC50 [1] of 268 nM.
Compound `O=C(CSc1nnnn1-c1ccc(C2CC2)cc1Cl)Nc1ccc(-c2ccc(OCCN3CCCCC3)cc2)cc1Cl` [Compound 2047] has an IC50 [1] of 63.5 nM.
Work on `CC(C)(C#Cc1ccc(NC(=O)CSc2nnnn2-c2ccc(C3CC3)cc2Cl)c(Cl)c1)OCCOc1ccncc1` [Compound 4167] yielded an IC50 [2] of 39.5 nM.
With `CC(C)(C)c1ccc(-n2nnnc2SCC(=O)Nc2ccc(-c3ccc(CCC(=O)O)cc3)cc2Cl)c(Cl)c1` [Compound 2028] the IC50 [1] was 9.3 nM.
Work on `CN1CCN(NS(=O)(=O)c2ccc(NC(=O)CSc3nnnn3-c3ccc(C4CC4)cc3Cl)c(Cl)c2)CC1` [Compound 3037] yielded an IC50 [1] of 112 nM.
`Cc1ccc(-n2nncc2SCC(=O)Nc2ccc(-c3ccc(CC(=O)O)cc3)cc2Cl)c(Cl)c1` [Compound 1005] was tested, and the IC50 [1] was 730 nM.
With `CC(C)(C)c1ccc(-n2nnnc2SCC(=O)Nc2ccc(C(=O)Nc3ccc(/C=C/C(=O)O)cc3)cc2Cl)c(Cl)c1` [Compound 6022] the IC50 [1] was 14 nM.
Compound `CC(C)(N)C#Cc1ccc(NC(=O)CSc2nnnn2-c2cc(C(F)(F)F)ccc2Cl)c(Cl)c1F` [Compound 4163] has an IC50 [2] of 83 nM.
`CC(C)(N)C#Cc1ccc(NC(=O)CSc2nnnn2-c2cc(C3CC3)cc(C(F)(F)F)c2Cl)c(Cl)c1F` [Compound 4250] was tested, and the IC50 [2] was 51.5 nM.
Compound `CN1CCN(S(=O)(=O)c2ccc(NC(=O)CSc3nnnn3-c3ccc(C4CC4)cc3Cl)c(Cl)c2)CC1` [Compound 3036] has an IC50 [1] of 88 nM.
Work on `CC(C)(C#Cc1ccc(NC(=O)CSc2nnnn2-c2ccc(C(C)(C)C)cc2Cl)c(Cl)c1)C(=O)NCCN1CCOCC1` [Compound 4013] yielded an IC50 [2] of 62 nM.
In the case of `CC(C)(C#Cc1ccc(NC(=O)CSc2nnnn2-c2cc(C(F)(F)F)cc(C3CC3)c2Cl)c(Cl)c1)OCCN1CCNCC1` [Compound 4235], the IC50 [2] is reported as 718 nM.
With `CC(C)(C#Cc1ccc(NC(=O)CSc2nnnn2-c2cc(C(F)(F)F)ccc2Cl)c(Cl)c1F)C(=O)O` [Compound 4101] the IC50 [2] was 57 nM.
For `O=C(CSc1nnnn1-c1cc(C(F)(F)F)ccc1Cl)Nc1ccc(-c2ccc(OCCN3CCCC3)cc2)c(F)c1Cl` [Compound 2058], the IC50 [1] was 25 nM.
`Cc1ccc(-n2nnnc2SCC(=O)Nc2ccc(-c3cccc(CC(=O)O)c3)cc2Cl)c(Cl)c1` [Compound 3004] showed an IC50 [1] of 93 nM.
Compound `CC(C)(C)c1ccc(-n2nnnc2SCC(=O)Nc2ccc(OCC(=O)NCCc3ccc(O)c(O)c3)cc2Cl)c(Cl)c1` [Compound 5021] has an IC50 [1] of 181 nM.
`CC(C)(C)c1ccc(-n2nnnc2SCC(=O)Nc2ccc(-c3ccc(OCCN4CCC(O)CC4)cc3)cc2Cl)c(Cl)c1` [Compound 2031] showed an IC50 [1] of 34 nM.
`CC(C)(C)c1ccc(-n2nnnc2SCC(=O)Nc2ccc(NC(=O)Cc3ccccc3[N+](=O)[O-])cc2Cl)c(Cl)c1` [Compound 7019] gave an IC50 [3] of 25 nM.
`CN(C)c1ccc(CC(=O)Nc2ccc(NC(=O)CSc3nnnn3-c3ccc(C(C)(C)C)cc3Cl)c(Cl)c2)cc1` [Compound 7037] showed an IC50 [3] of 236 nM.

Source: patent US7517998B2, “Non nucleoside reverse transcriptase inhibitors” (priority 2004, dated 2009)
